Here are results for 26 compounds from ChEMBL document CHEMBL5131502, “Improving the treatment of Parkinson's disease: Structure-based development of novel 5-HT2A receptor antagonists/inverse agonists” (Eur J Med Chem, 2022).

A short description of data set [1]: Metabolic stability in human liver microsomes assessed as intrinsic clearance at 100 uM preincubated for 10 mins followed by NADPH addition by LC/MS analysis. Format: ADME, Microsome. The settings on record: read-out: CLH. For orientation: Liver microsomes are a subcellular fraction often used to study metabolism.
The nature of data set [2]: Metabolic stability in human liver microsomes assessed as half life at 100 uM preincubated for 10 mins followed by NADPH addition by LC/MS analysis. It is filed as ADME, Microsome.
Data set [3] can be described thus: Metabolic stability in Sprague-Dawley rat liver microsomes assessed as half life at 100 uM preincubated for 10 mins followed by NADPH addition by LC/MS analysis. It is filed as ADME, Microsome.
Data set [4] can be described thus: Metabolic stability in Sprague-Dawley rat liver microsomes assessed as compound remaining at 100 uM […] followed by NADPH addition by LC/MS analysis. The settings on record: read-out: Stability. It is filed as ADME, Microsome.
Data set [5] can be described thus: Metabolic stability in Sprague-Dawley rat liver microsomes assessed as intrinsic clearance at 100 uM preincubated for 10 mins followed by NADPH addition by LC/MS analysis. The settings on record: read-out: CLH. Format: ADME, Microsome.
Data set [6] in a line: Metabolic stability in human liver microsomes assessed as compound remaining at 100 uM […] followed by NADPH addition by LC/MS analysis. The settings on record: read-out: Stability. It is filed as ADME, Microsome.
Data set [7] addresses Voltage-gated inwardly rectifying potassium channel KCNH2 (Homo sapiens, UniProt Q12809). Briefly: Inhibition of hERG potassium channel expressed in CHO cells at -80 mV holding potential by whole cell patch clamp assay. It is filed as toxicity, cell-based. In general terms: hERG is a cardiac potassium channel; its block is linked to QT prolongation.
Data set [8] deals with T1, 5-hydroxytryptamine receptor 2A (Homo sapiens, UniProt P28223). Put plainly: Antagonist activity at 5-HT2A receptor (unknown origin) expressed in CHO-K1 cells assessed as reduction in intracellular Ca2+ mobilization incubated for 15 mins by FLIPR assay. Format: functional, cell-based. (In general: A change in cytosolic calcium serves as a functional read-out for many receptors and channels.)

Data set [9] deals with T1, 5-hydroxytryptamine receptor 2A. Put plainly: Inverse agonist activity at 5-HT2A receptor (unknown origin) expressed in mouse NIH3T3 cells using o-nitrophenyl-D-galacto pyranoside incubated for 120 hrs. Format: functional, cell-based.
Data set [10] shares this target. Put plainly: Potency index, ratio of pimavanserin IC50 to test compound IC50 for inverse agonist activity at 5-HT2A receptor (unknown origin) expressed in mouse NIH3T3 cells using o-nitrophenyl-D-galacto pyranoside incubated for 120 hrs. Format: cell-based.
The target is the same in data set [11]. Briefly: Potency index, ratio of pimavanserin IC50 to test compound IC50 for antagonist activity at 5-HT2A receptor (unknown origin) expressed in CHO-K1 cells assessed as reduction in intracellular Ca2+ mobilization incubated for 15 mins by FLIPR assay. Format: functional, cell-based.
For data set [12], the system named is Rattus norvegicus. Put plainly: Antiparkinson's activity in rat assessed as reduction in DOI-induced head-twitching at 1.5 to 6 micromol/kg, IG measured after 1 hr. Format: functional, organism-based. The settings on record: dose 1.5-6 µmol/kg.
In data set [13] the test system is Rattus norvegicus. Briefly: Antiparkinson's activity in rat assessed as reduction of DOI-induced head-twitching at 6 micromol/kg, IG measured after 1 hr. The settings on record: dose 6.0 µmol/kg. It is filed as functional, organism-based.

Activity calls are given as the source filed them. No cut-off for these calls is given here.

T1 sequence (P28223 whole entry): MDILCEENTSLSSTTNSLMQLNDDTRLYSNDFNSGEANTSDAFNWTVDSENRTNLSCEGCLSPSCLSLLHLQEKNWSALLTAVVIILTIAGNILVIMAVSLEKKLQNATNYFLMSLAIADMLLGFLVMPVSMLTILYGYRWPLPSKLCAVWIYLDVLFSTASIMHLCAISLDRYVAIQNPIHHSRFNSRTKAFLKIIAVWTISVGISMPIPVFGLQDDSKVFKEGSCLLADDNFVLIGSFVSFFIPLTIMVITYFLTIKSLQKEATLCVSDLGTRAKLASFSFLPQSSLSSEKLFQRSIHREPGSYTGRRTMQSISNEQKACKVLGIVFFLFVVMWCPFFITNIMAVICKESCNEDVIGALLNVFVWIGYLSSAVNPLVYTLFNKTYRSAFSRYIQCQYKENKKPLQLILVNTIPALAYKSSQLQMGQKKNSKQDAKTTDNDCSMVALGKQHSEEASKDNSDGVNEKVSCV
Voltage-gated inwardly rectifying potassium channel KCNH2, sequence (Q12809 whole entry): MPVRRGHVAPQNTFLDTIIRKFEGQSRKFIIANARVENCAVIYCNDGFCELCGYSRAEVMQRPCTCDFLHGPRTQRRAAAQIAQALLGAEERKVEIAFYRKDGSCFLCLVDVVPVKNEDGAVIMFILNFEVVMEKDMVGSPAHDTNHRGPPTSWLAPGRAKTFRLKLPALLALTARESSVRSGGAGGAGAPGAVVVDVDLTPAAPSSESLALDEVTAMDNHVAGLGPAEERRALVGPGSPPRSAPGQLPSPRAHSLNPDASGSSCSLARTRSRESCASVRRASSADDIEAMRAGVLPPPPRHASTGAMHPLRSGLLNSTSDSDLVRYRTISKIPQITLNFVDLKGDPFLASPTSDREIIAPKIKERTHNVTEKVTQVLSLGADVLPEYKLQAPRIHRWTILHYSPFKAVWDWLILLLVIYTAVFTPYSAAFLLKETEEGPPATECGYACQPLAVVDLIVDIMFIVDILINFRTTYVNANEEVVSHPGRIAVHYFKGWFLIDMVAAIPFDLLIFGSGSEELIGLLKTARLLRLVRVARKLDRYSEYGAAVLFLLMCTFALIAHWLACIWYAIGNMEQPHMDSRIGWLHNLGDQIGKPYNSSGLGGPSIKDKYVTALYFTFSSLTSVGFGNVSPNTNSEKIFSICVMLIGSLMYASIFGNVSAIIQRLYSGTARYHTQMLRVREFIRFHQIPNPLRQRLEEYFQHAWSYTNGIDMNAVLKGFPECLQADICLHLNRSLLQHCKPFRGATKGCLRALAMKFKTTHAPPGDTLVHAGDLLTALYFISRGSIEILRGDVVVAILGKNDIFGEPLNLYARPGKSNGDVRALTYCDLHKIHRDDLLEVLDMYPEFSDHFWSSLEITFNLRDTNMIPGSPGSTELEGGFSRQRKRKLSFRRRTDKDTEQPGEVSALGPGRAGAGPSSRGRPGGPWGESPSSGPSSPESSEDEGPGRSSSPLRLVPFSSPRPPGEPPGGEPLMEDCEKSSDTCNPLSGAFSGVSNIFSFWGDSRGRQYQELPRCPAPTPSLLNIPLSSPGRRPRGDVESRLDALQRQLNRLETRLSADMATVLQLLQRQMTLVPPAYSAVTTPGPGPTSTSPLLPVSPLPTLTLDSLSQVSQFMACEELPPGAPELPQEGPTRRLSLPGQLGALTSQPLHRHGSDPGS

As usually defined, the half-life is how long it takes for the measured level to halve. A word on the IC50: it is the concentration needed to halve the response being measured. In the case of `CN1CCC(N(Cc2ccc(F)cn2)C(=O)NCc2ccc3c(c2)CC(C)(C)O3)CC1`, the CLint scaled at 100 µM was found to be 11.9 mL/min/kg in data set [1] and 37.1 mL/min/kg in [5]. Besides, the half-life at 100 µM in data set [2] turned out to be 1.75 h; in data set [3], 1.06 h. The remaining at 100 µM stood at 55% in [4] and 66.8% in data set [6]. In data set [7], the IC50 turned out to be 3610 nM.

Turning to `CC(C)COc1ccc(CNC(=O)N(Cc2ncc(F)cc2F)C2CCN(C)CC2)cc1`, the IC50 in data set [8] was 43.2 nM.

`CC(C)COc1ccc(CNC(=O)N(Cc2cn[nH]c2)C2CCN(C)CC2)cc1`: the IC50 in data set [8] and in data set [9] was over 500 nM throughout.

On to `CC(C)COc1ccc(CNC(=O)N(Cc2ccc(F)cc2)C2CCN(CC(=O)N(C)C)CC2)cc1`, for which the figures for the IC50 in data set [8] and in [9] were 252 nM and 86.4 nM, respectively.

In the case of `CC(C)Cc1ccc(CNC(=O)N(Cc2ccc(F)cn2)C2CCN(C)CC2)cc1`, the IC50 in data set [8] was determined as 26.4 nM; in [9], 8.3 nM.

Regarding `CC(C)COc1ccc(CNC(=O)N(Cc2ccc(F)cc2)C2CCN(CCN(C)C)CC2)cc1`, the IC50 is 75.4 nM in [8] and over 500 nM in [9].

As for `CC(C)COc1ccc(CNC(=O)N(Cc2ccc(F)cn2)C2CCN(C)CC2)cc1`, the values for the Ratio IC50 in [10] and in [11] were 2 and 3, respectively.

For the compound `CC(C)COc1ccc(CNC(=O)N(Cc2cccc3[nH]cnc23)C2CCN(C)CC2)cc1`, the IC50 in data set [8] and in data set [9] was over 500 nM in each case. The Ratio IC50 was over 10 in data set [10] and over 15 in data set [11].

In the case of `CN1CCC(N(Cc2ccc(F)cn2)C(=O)NCc2ccc3c(c2)CCC(C)(C)O3)CC1`, the IC50 in data set [9] amounted to 127 nM.

In the case of `CN1CCC(N(Cc2ccc(F)cn2)C(=O)NCc2ccc(OCC(F)(F)F)c(Cl)c2)CC1`, the IC50 was determined as 125 nM in data set [8] and 134 nM in data set [9].

`CC(C)c1cc2cc(CNC(=O)N(Cc3ccc(F)cn3)C3CCN(C)CC3)ccc2o1` yielded an IC50 in data set [9] of 64.9 nM.

Turning to `CN1CCC(N(Cc2ccc(F)cn2)C(=O)NCc2ccc(OCCCF)cc2)CC1`, the CLint scaled at 100 µM in [1] was under 6.7 mL/min/kg; in [5], under 13.4 mL/min/kg. Further, the IC50 in data set [8] turned out to be 1.93 nM; in [9] it was 3.05 nM. In addition, the half-life at 100 µM in [2] and in data set [3] was over 3.1 h each time. For the same compound, the remaining at 100 µM in [4] turned out to be 80.4%; in [6], 87.8%.

The compound `CC(C)COc1ccc(CNC(=O)N(Cc2ccc(F)nn2)C2CCN(C)CC2)cc1` returned an IC50 in data set [9] of over 500 nM.

Turning to `CN1CCC(N(Cc2ccc(F)cn2)C(=O)NCc2ccc(OCC(F)(F)F)cc2)CC1`, the result in [12] was Active.

As to `CC(C)CCc1ccc(CNC(=O)N(Cc2ccc(F)cn2)C2CCN(C)CC2)cc1`, in data set [8], the IC50 amounted to 67.2 nM.

`CN1CCC(N(Cc2ccc(F)cn2)C(=O)NCc2ccc(OC(F)(F)C(F)(F)F)cc2)CC1`: the IC50 in [8] came to 33.4 nM.

Consider `CC(C)COc1ccc(CNC(=O)N(Cc2ccc(F)cc2)C2CC(N(C)C)C2)cc1` (centres undefined), for which the IC50 in [8] stood at 139 nM; in [9] it was 159 nM.

Take `CC(C)COc1ccc(CNC(=O)N(Cc2cccc3sccc23)C2CCN(C)CC2)cc1`: the IC50 in data set [8] and in data set [9] was over 500 nM in each case. The Ratio IC50 in data set [10] is over 10; in data set [11], over 15.

For `Cc1noc(C)c1CN(C(=O)NCc1ccc(OCC(C)C)cc1)C1CCN(C)CC1`, the IC50 in data set [8] and in data set [9] was over 500 nM throughout.

As to `CC(C)COc1ccc(CNC(=O)N(Cc2ccc(F)cc2)C2CCC(N(C)C)C2)cc1` (centres undefined), the IC50 in data set [8] was found to be 110 nM; in data set [9] it was 101 nM.

For the compound `CC(C)COc1ccc(CNC(=O)N(Cc2ccc(F)cc2)C2CCN(C)CC2)cc1`, the outcome in data set [13] was Active.

Turning to `CC(C)COc1ccc(CNC(=O)N(Cc2ccc(F)cc2)C2CCCC(N(C)C)C2)cc1` (centres undefined), the IC50 in data set [8] and in data set [9] was over 500 nM in each case.

Take `CC(C)COc1ccc(CNC(=O)N(Cc2ccc(F)nc2)C2CCN(C)CC2)cc1`: the IC50 in data set [8] and in data set [9] was over 500 nM in each case.

As to `CN1CCC(N(Cc2ccc(F)cn2)C(=O)NCc2ccc(CCC(F)(F)F)cc2)CC1`, the results for the IC50 in data set [8] and in data set [9] were 18.3 nM and 872 nM, respectively.

On to `CN1CCC(N(Cc2ccc(F)cn2)C(=O)NCc2ccc(OCC(F)(F)F)c(Br)c2)CC1`, for which the IC50 in [8] amounted to 12 nM; in data set [9], 8.85 nM.

`CN1CCC(N(Cc2ccc(F)cn2)C(=O)NCc2ccc(OCC(F)(F)F)c(C(F)(F)F)c2)CC1`: the IC50 in data set [8] came to 27.3 nM; in data set [9], 30.5 nM.
